Converted amounts (≈) assume the structure as drawn.
Tests used:
Assay in all cases: In vitro antibacterial evaluation: minimum inhibitory concentration (MIC), broth dilution method
Format in all cases: cell-based
Enterococcus sp. = conditions: 18 hours at 35° C.
How it was run: (§1)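 Values are minimum inhibitory concentrations, meaning the smallest antibiotic concentration that stops growth of the organism. They come from broth dilution in Muller-Hinton II […] per NCCLS guidance (M7-A2), using 5×10^5 CFU/mL and concentrations from 64 to 0.06 μg/mL.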

Escherichia coli = conditions: 18 hours at 35° C.
How it was run: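 NCCLS M7-A2 broth dilution with Mueller-Hinton II, testing 64-0.06 μg/mL antibiotic against 5×10^5 CFU/mL inocula. Test strains include recent methicillin-, penicillin- or vancomycin-resistant clinical isolates. MIC is the lowest concentration preventing growth.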

Staphylococcus sp. = tested on: Staphylococcus sp.
How it was run: as §1

Streptococcus sp. = conditions: 18 hours at 35° C.
How it was run: as §1

[1] = broth dilution, inoculum 5×10^5 CFU/mL

MIC Enterococcus avium (GC 4558) (Enterococcus sp.; Enterococcus avium (GC 4558)): 4 mg/L (≈ 2.85 µM)
MIC Enterococcus faecalis (ATCC 29212) (Enterococcus sp.; Enterococcus faecalis (ATCC 29212)): 2 mg/L (≈ 1.43 µM)
MIC Enterococcus faecalis (GC 2242) (Enterococcus sp.; Enterococcus faecalis (GC 2242)): 4 mg/L (≈ 2.85 µM)
MIC Enterococcus faecalis (GC 2691) (Enterococcus sp.; Enterococcus faecalis (GC 2691)): 4 mg/L (≈ 2.85 µM)
MIC Enterococcus faecalis (GC 3059) (Enterococcus sp.; Enterococcus faecalis (GC 3059)): 2 mg/L (≈ 1.43 µM)
MIC Enterococcus faecalis (GC 4552) (Enterococcus sp.; Enterococcus faecalis (GC 4552)): 4 mg/L (≈ 2.85 µM)
MIC Enterococcus faecalis (GC 4553) (Enterococcus sp.; Enterococcus faecalis (GC 4553)): 2 mg/L (≈ 1.43 µM)
MIC Enterococcus faecalis (GC 4554) (Enterococcus sp.; Enterococcus faecalis (GC 4554)): 4 mg/L (≈ 2.85 µM)
MIC Enterococcus faecalis (GC 6189) (Enterococcus sp.; Enterococcus faecalis (GC 6189)): 2 mg/L (≈ 1.43 µM)
MIC Enterococcus faecium (GC 2243) (Enterococcus sp.; Enterococcus faecium (GC 2243)): 2 mg/L (≈ 1.43 µM)
MIC Enterococcus faecium (GC 4556) (Enterococcus sp.; Enterococcus faecium (GC 4556)): 2 mg/L (≈ 1.43 µM)
MIC Enterococcus faecium (GC 4557) (Enterococcus sp.; Enterococcus faecium (GC 4557)): 4 mg/L (≈ 2.85 µM)
MIC Enterococcus avium (GC 4558) (Enterococcus sp.; [1]): 4 mg/L (≈ 2.85 µM)
MIC Enterococcus faecalis (ATCC 29212) (Enterococcus sp.; [1]): 2 mg/L (≈ 1.43 µM)
MIC Enterococcus faecalis (GC 2242) (Enterococcus sp.; [1]): 4 mg/L (≈ 2.85 µM)
MIC Enterococcus faecalis (GC 2691) (Enterococcus sp.; [1]): 4 mg/L (≈ 2.85 µM)
MIC Enterococcus faecalis (GC 3059) (Enterococcus sp.; [1]): 2 mg/L (≈ 1.43 µM)
MIC Enterococcus faecalis (GC 4552) (Enterococcus sp.; [1]): 4 mg/L (≈ 2.85 µM)
MIC Enterococcus faecalis (GC 4553) (Enterococcus sp.; [1]): 2 mg/L (≈ 1.43 µM)
MIC Enterococcus faecalis (GC 4554) (Enterococcus sp.; [1]): 4 mg/L (≈ 2.85 µM)
MIC Enterococcus faecalis (GC 6189) (Enterococcus sp.; [1]): 2 mg/L (≈ 1.43 µM)
MIC Enterococcus faecium (GC 2243) (Enterococcus sp.; [1]): 2 mg/L (≈ 1.43 µM)
MIC Enterococcus faecium (GC 4556) (Enterococcus sp.; [1]): 2 mg/L (≈ 1.43 µM)
MIC Enterococcus faecium (GC 4557) (Enterococcus sp.; [1]): 4 mg/L (≈ 2.85 µM)
MIC Escherichia coli (ATCC 25922) (Escherichia coli; Escherichia coli (ATCC 25922)): 64 mg/L (≈ 45.6 µM)
MIC Escherichia coli (GC 4560) (Escherichia coli; Escherichia coli (GC 4560)): 1 mg/L (≈ 0.713 µM)
MIC Staphylococcus aureus (ATCC 29213) (Staphylococcus sp.; strain ATCC 29213): 2 mg/L (≈ 1.43 µM)
MIC Staphylococcus aureus (GC 1131) (Staphylococcus sp.; strain GC 1131): 2 mg/L (≈ 1.43 µM)
MIC Staphylococcus aureus (GC 3051) (Staphylococcus sp.; strain GC 3051): 2 mg/L (≈ 1.43 µM)
MIC Staphylococcus aureus (GC 3053) (Staphylococcus sp.; strain GC 3053): 2 mg/L (≈ 1.43 µM)
MIC Staphylococcus aureus (GC 4541) (Staphylococcus sp.; strain GC 4541): 2 mg/L (≈ 1.43 µM)
MIC Staphylococcus aureus (GC 4542) (Staphylococcus sp.; strain GC 4542): 2 mg/L (≈ 1.43 µM)
MIC Staphylococcus aureus-SMITH (GC 4543) (Staphylococcus sp.; strain GC 4543): 2 mg/L (≈ 1.43 µM)
MIC Staphylococcus aureus (GC 4544) (Staphylococcus sp.; strain GC 4544): 2 mg/L (≈ 1.43 µM)
MIC Staphylococcus aureus (GC 4545) (Staphylococcus sp.; strain GC 4545): 2 mg/L (≈ 1.43 µM)
MIC Coagulase Negative Staphylococcus (GC 4547) (Staphylococcus sp.; strain GC 4547): 2 mg/L (≈ 1.43 µM)
MIC Coagulase Negative Staphylococcus (GC 4548) (Staphylococcus sp.; strain GC 4548): 1 mg/L (≈ 0.713 µM)
MIC Coagulase Negative Staphylococcus (GC 4549) (Staphylococcus sp.; strain GC 4549): 1 mg/L (≈ 0.713 µM)
MIC Coagulase Negative Staphylococcus (GC 4551) (Staphylococcus sp.; strain GC 4551): 2 mg/L (≈ 1.43 µM)
MIC Streptococcus agalactiae (GC 4564) (Streptococcus sp.; Streptococcus agalactiae (GC 4564)): <0.12 mg/L
MIC Streptococcus pneumoniae (ATCC 6301) (Streptococcus sp.; Streptococcus pneumoniae (ATCC 6301)): <0.12 mg/L
MIC Streptococcus pneumoniae (GC 1894) (Streptococcus sp.; Streptococcus pneumoniae (GC 1894)): <0.12 mg/L
MIC Streptococcus pneumoniae (GC 4565) (Streptococcus sp.; Streptococcus pneumoniae (GC 4565)): <0.12 mg/L
MIC Streptococcus pyogenes (GC 4563) (Streptococcus sp.; Streptococcus pyogenes (GC 4563)): <0.12 mg/L
MIC Streptococcus agalactiae (GC 4564) (Streptococcus sp.; [1]): <0.12 mg/L
MIC Streptococcus pneumoniae (ATCC 6301) (Streptococcus sp.; [1]): <0.12 mg/L
MIC Streptococcus pneumoniae (GC 1894) (Streptococcus sp.; [1]): <0.12 mg/L
MIC Streptococcus pneumoniae (GC 4565) (Streptococcus sp.; [1]): <0.12 mg/L
MIC Streptococcus pyogenes (GC 4563) (Streptococcus sp.; [1]): <0.12 mg/L
Structure (SMILES): CC(c1ccccc1)C1NC(=O)CNC(=O)C(CO)NC(=O)C(C(O)C2CNC(=N)N2C2OC(CO)C(O)C(O)C2O)NC(=O)C(C(O)C2CNC(=N)N2)NC(=O)C(Cc2ccc(OC3OC(CO)C(OC4OC5COC6(CCCCC6(C)C)OC5C(O)C4O)C(O)C3O)cc2)NC1=O (stereo not drawn) [Example 205, Cyclo[glycyl-β-methylphenylalanyl-O-[4-O-[4,6-O-(2,2-dimethylcyclohexylidene)hexopyranosyl]hexopyranosyl]tyrosyl-3-(2-iminoimidazolidin-4-yl)seryl-3-(3-hexopyranosyl-2-iminoimidazolidin-4-yl)serylseryl]]
MIC Staphylococcus haemolyticus (GC 4546) (Staphylococcus sp.; strain GC 4546): 2 mg/L (≈ 1.43 µM)

Source: US8247211B2, “Glycopeptide antibiotics” (American Cyanamid Company, priority 2001, dated 2012)
